Assay [1] deals with wild-type mice. Kind of assay: Exercise-activity assay in wild-type mice. The class given is in vivo, mouse.
For another assay, the system named is rats. As to conditions: Wang et al. 2001; cited from earlier work.
The subject of assay [2] is dystrophic or nNOS-null mice. The assay is described as follows: Exercise-activity assay in dystrophic or nNOS-null mice. The class given is in vivo, mouse.
The next assay has as its system wild-type and mdx mice. As to conditions: Thomas et al. 1998; cited from earlier work.
A further assay concerns human forearm. The conditions noted are these: local intra-arterial infusion, Seddon et al. 2008; cited from earlier work.
In assay [3] the test system is wild-type mice. As to conditions: Kinugawa et al. 2005; cited from earlier work.
The subject of the next assay is mdx mice. The assay is described as follows: Exercise-activity assay (mild treadmill exercise, then open-field activity chamber) in mdx mice. As to conditions: treatment before mild treadmill exercise. The assay is classed as in vivo, mouse.
In another assay the test system is mammals. As to conditions: Barbato et al. 2005; cited from earlier work.
For assay [4], the system named is wild-type mice. The conditions noted are these: Miki et al. 2002; cited from earlier work.
In a further assay the target is PDE5A (Homo sapiens, UniProt O76074). The assay is described as follows: PDE5A inhibition. The class given is biochemical. The conditions noted are these: at plasma concentration from 300 mg/kg/day.
Assay [5] has as its system DGC models of muscular dystrophy. The assay is described as follows: Exercise/activity assay in DGC models of muscular dystrophy. The conditions noted are these: administration prior to exercise. The class given is in vivo, mouse.
Another assay relates to nNOS-null mice. Kind of assay: Exercise/activity assay in nNOS-null mice. The class given is in vivo, mouse. The conditions noted are these: administration prior to exercise.
Assay [6] deals with DGC models of muscular dystrophy. The assay is described as follows: Serum creatine kinase following exercise. As to conditions: mice subjected to eccentric contractions, 2 hours post-exercise. The class given is in vivo, mouse. The protocol:
In the assay, mice are initially placed in an activity cage for thirty minutes, and different activity measurements are measured and monitored during this time frame. The mice are then bled to measure serum creatine kinase (CK) levels and then the mice are injected with Evans Blue Dye. […]. Twenty-four hours later, the mice are then subject to a ten minute exercise protocol on a treadmill with a fifteen degree downhill incline at fifteen meters per minute. Following the exercise protocol, the mice are placed back in the activity cage, and post-exercise activity is measured for thirty minutes. […]
The pharmacological screen utilizes an exercise-activity assay to identify compounds that facilitate NO signaling in muscle having mislocalized nNOS. In the assay, mice are initially placed in an activity cage for thirty minutes to measure pre-exercise activity, and different activity measurements are measured and monitored during this time frame. […] Following the exercise protocol, the mice are placed back in the activity cage, and post-exercise activity is measured for thirty minutes. […]
Serum Creatine Kinase Assays. Blood for quantitative, kinetic determination of serum creatine kinase activity was collected either after the pre-exercise activity analysis or 2 hours post-exercise by mouse tail vein bleeds, using a Sarstedt microvette CB 300, from non-anesthetized restrained mice. […]

For assay [7] the test system is unchanged. The assay is described as follows: Evans Blue Dye uptake in muscle following exercise. The class given is in vivo, mouse. The conditions noted are these: mice subjected to eccentric contractions.

Entries after “also recorded” stand apart in the source; their conditions may differ.

As to `O=[N+]([O-])c1cccc2c(Br)n[nH]c12` [3-bromo-7-nitroindazole], in the assay with wild-type mice [1], the post-exercise activity result is reported as “caused post-exercise inactivity”.

For the compound `COC(=O)[C@@H](N)CCCNC(=N)N[N+](=O)[O-]` [L-NAME], in the assay with wild-type mice [1], the post-exercise activity result is given as “reduced post-exercise activity to levels similar to those in nNOS-null mice post-exercise”. Further, the walking speed entry in the assay with rats is given as “severely reduces walking speed”. Besides, the post-exercise activity result in [2] is “reduced the activity post-exercise even more”. In addition, in the assay on wild-type and mdx mice, the “femoral blood flow velocity and vascular conductance” value is “decreases femoral blood flow velocity and vascular conductance”; the mean arterial pressure result was “increases mean arterial pressure”.

As to `CNC(=N)NCCC[C@H](N)C(=O)O` [L-NMMA], the resting blood flow entry in the assay on human forearm is reported as “reduces resting blood flow”.

In the case of `NC(=NCCC[C@H](N)C(=O)O)N[N+](=O)[O-]` [L-NNA], the “exercise-induced hyperemia and exercise capacity” value with wild-type mice [3] is “prevents adequate exercise-induced hyperemia and limits exercise capacity during exhaustive treadmill running”.

Turning to `CC1(C)CC(O)CC(C)(C)N1[O]` [Tempol], the “post-exercise activity / exaggerated fatigue response to mild exercise” value with mdx mice is listed as “had no effect on the exaggerated fatigue response”.

As for `CC(=O)OCC(=O)[C@@]12N=C(C)O[C@@H]1C[C@H]1[C@@H]3CCC4=CC(=O)C=C[C@]4(C)[C@H]3[C@@H](O)C[C@@]12C` [deflazacort], the “post-exercise activity / exaggerated fatigue response to mild exercise” value with mdx mice is reported as “neither treatment resulted in improved post-exercise activity; also recorded: did not ameliorate inactivity post-exercise”.

As to `CC(C)Cc1ccc(C(C)C(=O)O)cc1` (stereo not shown) [ibuprofen], the “post-exercise activity / exaggerated fatigue response to mild exercise” value in the assay with mdx mice was “neither treatment resulted in improved post-exercise activity”.

Regarding `O=C(NCCO[N+](=O)[O-])c1cccnc1` [nicorandil], the blood pressure result with mammals was “significantly reducing blood pressure in mammals”.

As for `CC(N/C(=N\C#N)Nc1ccncc1)C(C)(C)C` (stereo not shown) [pinacidil], the mean arterial pressure result with wild-type mice [4] was “decreases mean arterial pressure”.

Regarding `CCCc1nn(C)c2c(=O)nc(-c3cc(S(=O)(=O)N4CCN(C)CC4)ccc3OCC)[nH]c12` [sildenafil, 5-[2-ethoxy-5-(4-methylpiperazin-1-yl)sulfonylphenyl]-1-methyl-3-propyl-4H-pyrazolo[5,4-e]pyrimidin-7-one], the enzyme activity inhibited entry at PDE5A was “more than 50%”. For the same compound, the “post-exercise activity / exaggerated fatigue response to mild exercise” value with mdx mice was “very effective at preventing the exercise-induced fatigue”. The post-exercise activity result was “very effective at preventing the loss of activity following exercise; also recorded: dramatically increased post-exercise activity” in [5] and “dramatically increased post-exercise activity” in the assay on nNOS-null mice. In addition, the “serum CK following exercise” value in [6] was “prevent an increase in serum CK”. In [7], the “Evans Blue Dye uptake in muscle following exercise” value was “prevent an increase in serum CK and Evans Blue Dye uptake in muscle following exercise”.

For the compound `CN1CC(=O)N2[C@H](c3ccc4c(c3)OCO4)c3[nH]c4ccccc4c3C[C@@H]2C1=O` [tadalafil], in the assay on mdx mice, the “post-exercise activity / exaggerated fatigue response to mild exercise” value is “very effective at preventing the exercise-induced fatigue”.

With sarafotoxin 6c, the post-exercise activity result with wild-type mice [1] is listed as “caused post-exercise inactivity”.

In the case of superoxide dismutase, in the assay with mdx mice, the “post-exercise activity / exaggerated fatigue response to mild exercise” value was “neither method of SOD exposure had an effect on the exaggerated fatigue response”.

(Values after US9943518B2, “Inhibitors of phosphodiesterase type 5A for reducing skeletal muscle fatigue, edema, and damage in a patient having muscle fatigue due to increased age or exercise” (University of Iowa Research Foundation, priority 2008, dated 2018).)
